For assay [1], the target named is T1, Heat shock factor protein 1 (Mus musculus, UniProt P38532).
T1 sequence (P38532 whole entry): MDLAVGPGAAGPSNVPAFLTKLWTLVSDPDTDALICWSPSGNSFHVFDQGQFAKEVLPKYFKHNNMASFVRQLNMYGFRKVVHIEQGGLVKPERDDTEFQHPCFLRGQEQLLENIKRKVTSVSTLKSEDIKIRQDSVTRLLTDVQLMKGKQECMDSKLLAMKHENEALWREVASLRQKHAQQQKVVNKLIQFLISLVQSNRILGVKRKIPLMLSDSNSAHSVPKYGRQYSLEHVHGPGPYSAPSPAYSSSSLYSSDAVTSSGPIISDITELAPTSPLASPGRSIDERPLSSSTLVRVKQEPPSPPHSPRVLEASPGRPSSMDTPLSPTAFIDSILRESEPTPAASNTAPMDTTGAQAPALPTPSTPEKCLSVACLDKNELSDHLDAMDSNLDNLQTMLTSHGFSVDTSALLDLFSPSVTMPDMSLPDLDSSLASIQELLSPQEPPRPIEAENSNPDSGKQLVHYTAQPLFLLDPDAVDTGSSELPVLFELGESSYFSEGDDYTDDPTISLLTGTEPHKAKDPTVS
The experiment in a line: enhancement of HSF1-driven luciferase signal – cell-based, NIH3T3, luminescence, dose retest, confirmation (AID 435004).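 Note: stress induced by proteasome inhibitor MG132 added 30 min after compound; luciferase reporter driven by HSF1 response element in NIH3T3 cells; actives raise luminescence as potentiators of the MG132 stress response.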 The format is functional.

Assay [2] addresses T2, High affinity choline transporter 1 (Homo sapiens, UniProt Q9GZV3).
T2 sequence (Q9GZV3 whole entry): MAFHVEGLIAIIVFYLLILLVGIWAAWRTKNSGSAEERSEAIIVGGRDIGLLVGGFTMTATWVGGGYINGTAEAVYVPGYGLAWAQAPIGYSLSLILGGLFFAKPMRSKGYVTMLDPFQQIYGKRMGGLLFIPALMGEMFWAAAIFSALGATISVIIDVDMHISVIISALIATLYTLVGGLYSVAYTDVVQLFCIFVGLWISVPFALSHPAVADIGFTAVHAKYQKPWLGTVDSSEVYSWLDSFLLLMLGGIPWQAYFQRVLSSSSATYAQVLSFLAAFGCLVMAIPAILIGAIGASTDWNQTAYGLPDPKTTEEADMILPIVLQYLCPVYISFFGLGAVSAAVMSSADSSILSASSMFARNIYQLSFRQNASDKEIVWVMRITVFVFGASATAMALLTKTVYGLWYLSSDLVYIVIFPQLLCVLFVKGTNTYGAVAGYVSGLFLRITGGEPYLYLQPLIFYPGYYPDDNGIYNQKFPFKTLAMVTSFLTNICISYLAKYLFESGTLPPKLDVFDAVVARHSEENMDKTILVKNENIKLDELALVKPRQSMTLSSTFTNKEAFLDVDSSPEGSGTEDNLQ
The experiment in a line: human choline transporter blockers, potency – cell-based, 5-point CRC, membrane potential dye, dose response (AID 504840). The assay is classed as functional.

Assay [3] in a line: NIH-3T3 fibroblast cytotoxicity, dose response, cytotoxicity control, cell-based, fluorescence, Alamar Blue, secondary assay (AID 2327).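 Note: NIH-3T3 mouse fibroblasts cultured with fluconazole at 8 µg/mL.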 The assay is classed as functional. In general terms: Resazurin is reduced to fluorescent resorufin, in cell work by metabolically active cells.
Assay [4] relates to Streptococcus sp. 'group A'. The experiment in a line: Streptococcus pyogenes SK(-)GAS viability under kanamycin – luminescence, BacTiterGlo, confirmation, counter-screen for streptokinase expression inhibitor project, dose response (AID 1900). The assay is classed as functional, organism-based. On the technique in general: A counterscreen serves to expose hits that act by an unwanted route or on another target.

Assay [5] can be described thus: fluconazole-exposed Candida albicans growth modulators – fluorescence, retest, confirmation (AID 2467). The format is functional, cell-based.
The test system of the next assay is Streptococcus. Nature of the assay: GAS UMAA2166 growth inhibition – luminescence, BacTiterGlo, counter-screen for streptokinase expression inhibitor project, dose response (AID 1915).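 Note: potency for reduction of bacterial viability or growth.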 The format is functional, organism-based.
The next assay has as its target Cytochrome P450 2D6 (Homo sapiens, UniProt P10635).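 Note: CYP2D6 member of a cytochrome P450 panel assay.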
Assay [6] is described as follows: Trypanosoma cruzi growth suppression in host cells – NIH3T3 host cells, beta-gal luminescence, confirmation (AID 2044).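 Note: intracellular parasites grown in NIH/3T3 mouse fibroblasts as host cells; luminescent beta-galactosidase reporter signal from transgenic T. cruzi replicating inside host cells; inhibitors lower the luminescence signal.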 The format is functional, cell-based.
Assay [7] can be described thus: NIH3T3 cell viability loss – ATP luminescence, mouse fibroblasts, counter-screen, dose response (AID 2010).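 Note: cells exposed to compound for about 90 hours before reading.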 The format is functional, cell-based.
For assay [8], the target named is FAD-linked sulfhydryl oxidase ALR (Homo sapiens, UniProt P55789). The experiment in a line: ALR-catalysed DTT oxidation blockers – biochemical, H2O2 detection, luminescence, cherry-pick, dose response (AID 493248).
Sequence of FAD-linked sulfhydryl oxidase ALR (P55789 whole entry): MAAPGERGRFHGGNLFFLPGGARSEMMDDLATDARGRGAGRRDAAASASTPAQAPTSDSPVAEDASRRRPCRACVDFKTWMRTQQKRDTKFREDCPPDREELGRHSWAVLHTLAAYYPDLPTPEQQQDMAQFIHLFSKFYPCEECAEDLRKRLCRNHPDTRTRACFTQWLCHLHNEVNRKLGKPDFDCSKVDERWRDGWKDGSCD
The next assay deals with Vero. Nature of the assay: cells. The format is functional. Particulars: Chlorocebus sabaeus.
The next assay addresses T3, Streptokinase A (Streptococcus pyogenes serotype M1, UniProt P10520).
T3 sequence (P10520 whole entry): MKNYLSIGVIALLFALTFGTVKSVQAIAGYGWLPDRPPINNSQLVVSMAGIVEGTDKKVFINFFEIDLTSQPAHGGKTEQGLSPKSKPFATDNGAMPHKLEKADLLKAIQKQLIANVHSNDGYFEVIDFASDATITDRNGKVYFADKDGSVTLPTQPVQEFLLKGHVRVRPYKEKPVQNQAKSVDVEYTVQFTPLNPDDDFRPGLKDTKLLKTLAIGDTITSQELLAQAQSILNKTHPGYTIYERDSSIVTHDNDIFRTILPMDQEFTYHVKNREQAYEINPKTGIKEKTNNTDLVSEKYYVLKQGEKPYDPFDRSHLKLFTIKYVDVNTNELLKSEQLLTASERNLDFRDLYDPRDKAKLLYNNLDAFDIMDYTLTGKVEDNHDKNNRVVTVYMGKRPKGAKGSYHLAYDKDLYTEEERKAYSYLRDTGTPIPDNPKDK
The experiment in a line: viability-normalized secreted streptokinase activity reduction – plasminogen activation absorbance, OD405, dose response (AID 1914).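 Note: secreted streptokinase activity via plasminogen activation per viability signal from cell pellet.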 The assay is classed as functional, Streptococcus pyogenes M1 GAS.

A short description of assay [9]: viability of PTEN-deleted HCT116 cells – cell-based, HCT116 PTEN knockout, dose response (AID 1047).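 Note: HCT116 colon tumor cells with PTEN knocked out; cells exposed to compound for 60 hours before readout; potency for loss of cell viability measured by luminescence.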 The format is functional.
Assay [10] is described as follows: viability of HCT116 lacking mutant beta-catenin – cell-based, human colon tumor, dose response (AID 1045).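 Note: HCT116 colon tumor cells with beta catenin knocked out; cells exposed to compound for 60 hours.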 The format is functional.
Assay [11] in a line: Luminescence Cell-Based Dose Retest to Confirm Inhibitors of Cancer Stem Cells. [Related pubchem assays (depositor defined):AID2717, AID2721]. Particulars: Homo sapiens. The format is functional.
For assay [12], the target named is T4, Ubiquitin-conjugating enzyme E2 N (Homo sapiens, UniProt P61088).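 Note: Dose-response confirmation in a TR-FRET assay detecting UBC13-driven polyubiquitin chain formation, inhibition measured.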
T4 sequence (P61088 whole entry): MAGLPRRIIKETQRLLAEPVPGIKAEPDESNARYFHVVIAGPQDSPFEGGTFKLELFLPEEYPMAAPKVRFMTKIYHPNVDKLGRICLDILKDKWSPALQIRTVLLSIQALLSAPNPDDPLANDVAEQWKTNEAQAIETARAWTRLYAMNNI
The assay is classed as functional.

Assay [13] has as its target T5, Rac GTPase-activating protein 1 (Homo sapiens, UniProt Q9H0H5).
T5 sequence (Q9H0H5 whole entry): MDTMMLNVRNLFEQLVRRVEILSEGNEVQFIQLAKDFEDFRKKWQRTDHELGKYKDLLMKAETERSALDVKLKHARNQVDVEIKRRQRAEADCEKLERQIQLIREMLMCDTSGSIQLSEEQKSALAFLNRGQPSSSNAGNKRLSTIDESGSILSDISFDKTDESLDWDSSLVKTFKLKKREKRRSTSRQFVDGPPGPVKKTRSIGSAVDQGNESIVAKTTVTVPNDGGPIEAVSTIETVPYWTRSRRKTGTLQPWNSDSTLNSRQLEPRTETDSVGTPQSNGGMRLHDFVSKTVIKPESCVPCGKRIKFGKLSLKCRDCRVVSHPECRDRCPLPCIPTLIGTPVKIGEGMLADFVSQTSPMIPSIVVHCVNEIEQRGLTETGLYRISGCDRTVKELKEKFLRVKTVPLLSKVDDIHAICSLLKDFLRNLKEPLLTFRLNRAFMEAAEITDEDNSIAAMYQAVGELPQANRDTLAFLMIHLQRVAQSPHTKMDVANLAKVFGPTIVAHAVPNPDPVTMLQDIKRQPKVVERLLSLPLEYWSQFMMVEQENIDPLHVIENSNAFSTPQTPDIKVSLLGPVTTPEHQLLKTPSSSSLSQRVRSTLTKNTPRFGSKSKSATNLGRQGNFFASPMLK
Nature of the assay: blockers of MgcRacGAP-driven Rac1 GTP hydrolysis – biochemical, ADP Hunter fluorescence, primary and confirmatory, confirmation (AID 624330). The assay is classed as functional.

Calls of active or inactive are those of the source.

Sequence of Cytochrome P450 2D6 (P10635 whole entry): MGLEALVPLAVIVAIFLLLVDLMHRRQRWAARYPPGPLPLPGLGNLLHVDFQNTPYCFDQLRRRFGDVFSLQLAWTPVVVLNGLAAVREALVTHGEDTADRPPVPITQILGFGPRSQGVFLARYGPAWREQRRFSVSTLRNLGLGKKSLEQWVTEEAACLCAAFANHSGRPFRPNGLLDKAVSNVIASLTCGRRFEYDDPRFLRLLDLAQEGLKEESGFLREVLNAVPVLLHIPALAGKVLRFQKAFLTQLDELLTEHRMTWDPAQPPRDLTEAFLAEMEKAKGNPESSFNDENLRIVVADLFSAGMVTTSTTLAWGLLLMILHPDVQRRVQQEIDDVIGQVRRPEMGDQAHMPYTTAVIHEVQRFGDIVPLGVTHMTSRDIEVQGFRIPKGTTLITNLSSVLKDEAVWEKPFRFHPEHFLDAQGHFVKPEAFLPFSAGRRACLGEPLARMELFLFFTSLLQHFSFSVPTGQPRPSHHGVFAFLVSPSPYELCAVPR

Take `CCOC(=O)c1sc(NC(=O)CCN2CCC(C)CC2)c(C(=O)OCC)c1C`: in assay [1], the EC50 was > 260 µM (inactive). As to `CCn1cc(C(=O)N2CCCCC2)c(=O)c2cc(S(=O)(=O)N3CCC(C)CC3)ccc21`, the IC50 in assay [2] was 16.2 µM (active).

On to `CN(c1ccccc1)c1nc(N)c([N+](=O)[O-])c(N2CCCCCC2)n1`, for which the EC50 in assay [1] is 27.7 µM (active). Regarding `C=C(C)COc1ccc(-c2[nH]nc(C)c2-c2ccccc2)c(O)c1`, the EC50 in [3] was 93.6 µM (active); in assay [4], 9.45 µM (active); in assay [5], 2.67 µM (active); with Streptococcus, 16.4 µM (active). Consider `Nc1ccc(Sc2cnn(-c3ccccc3)c(=O)c2Cl)cc1`, for which the EC50 in [1] is > 260 µM (inactive). The half-maximal activity concentration (AC50) on Cytochrome P450 2D6 is 12.6 µM (inconclusive).

Take `CCOc1cc(/C=N/NC(=O)CN2CCCCC2)ccc1OCc1cccc(Cl)c1`: the IC50 in assay [2] was 14.5 µM (active). With `O=C(Nc1nc2ccc(S(=O)(=O)N3CCCCC3)cc2s1)c1ccncc1`, the values for the EC50 in assay [3] and in assay [5] were 130 µM (active) and 1.95 µM (active), respectively. On the same counts, the results for `O=C(NCC1CCCO1)c1cc2n(n1)C(C(F)(F)F)CC(c1ccc(Br)cc1)N2` (configuration not stated) are > 160 µM (inactive) and > 38 µM (not active).

Turning to `Cc1ccc(C(=O)C[n+]2cccc3ccccc32)cc1`, the EC50 in [6] was 32.4 µM (active); in assay [7], > 60 µM (not active). Further, in assay [2], the IC50 was 13.8 µM (active).

In the case of `OCc1ccccc1OCCOc1ccc(Cl)c2cccnc12`, in [2], the IC50 was 11.5 µM (active). Regarding `COc1ccc(CSc2[nH]c(C)nc2[N+](=O)[O-])cc1[N+](=O)[O-]`, the AC50 in assay [8] is 0.02 µM (active). On to `CCOC(=O)c1ccccc1N/C=C/C(=O)c1cccs1`, for which the concentration for half-maximal inhibition (IC50) in assay [2] is 13.2 µM (active). For the compound `Cc1cccc(N2CCN(C(=O)C3CCCN(S(=O)(=O)c4c[nH]cn4)C3)CC2C)c1` (configuration not stated), the AC50 in [8] is 3.55 µM (active). Consider `COc1cc(/C=C/C(=O)N2C(=O)c3cccc(N)c3C2=O)cc(OC)c1OC`, for which, in assay [1], the EC50 is 2.98 µM (active). In addition, the CC50 in the assay on Vero is 17.8 µM (active).

Consider `CN(C)CCNC=C(C(=O)Nc1ccc(Cl)cc1Cl)C(=O)Nc1ccc(Cl)cc1Cl`, for which the EC50 in assay [4] was 2.71 µM (active); at Streptokinase A, > 150 µM (not active); in assay [9], 17.2 µM (active); in assay [10], 26.4 µM (active); in the assay on Streptococcus it was 6.32 µM (active). The AC50 in assay [11] is 6.84 µM (active). The IC50 in [12] is > 20 µM (inactive). Also, the CC50 with Vero is > 25 µM (active). As for `O=C(NC1CCCCCCC1)c1ccc(S(=O)(=O)N2CCCC2)cc1`, the IC50 in assay [2] is 14.5 µM (active). On the same count and under the same terms, for `O=C(CC(CC(=O)c1ccc(Cl)cc1)c1ccccc1C(=O)O)c1ccc(Cl)cc1` the value was 13.8 µM (active).

On to `O=C(CSc1nnc(-c2ccc(F)cc2)c2ccccc12)Nc1ccccc1`, for which, in assay [1], the EC50 was 104 µM (active). For the compound `Cc1cccc(N2CCN(C(=O)C3CCN(S(=O)(=O)c4c(C)noc4C)CC3)CC2C)c1` (configuration not stated), the AC50 in assay [8] is 10.6 µM (active). Consider `CCOc1cc(N2CCOCC2)c(OCC)cc1NC(=O)c1nc2nc(C)cc(C)n2n1`, for which the EC50 in [3] was > 160 µM (inactive); in [5], > 38 µM (not active). With `O=C(N/N=C/c1ccncc1)c1cccc(N/N=C/c2ccncc2)c1`, the half-maximal activity concentration (AC50) in assay [8] is 6.02 µM (active). For the compound `CC(C)CCNCC(=O)NC(c1ccccc1)c1ccccc1`, the EC50 in assay [3] was > 160 µM (inactive); in assay [5] it was > 38 µM (not active). In the case of `CC1CCN(c2nc3ccc(C(=O)NCCCN4CCCCC4C)cc3s2)CC1` (configuration not stated), the 50% cytotoxic concentration (CC50) with Vero was > 25 µM (active). As for `CC(C)c1ccc(NC2CCCN(C(=O)c3cnsn3)C2)cc1` (configuration not stated), the AC50 in [8] is 4.8 µM (active). `CCn1c(=O)c(=O)[nH]c2cc(C(=O)NC(C)c3ccc(S(N)(=O)=O)cc3)ccc21` (configuration not stated): in assay [8], the concentration at half-maximal activity (AC50) was 0.407 µM (active). Regarding `Nc1ccc(N2CCN(c3ccc(F)cc3)CC2)cc1`, the EC50 in [3] is 40.1 µM (active). Moreover, the half-maximal activity concentration (AC50) in assay [8] was 0.821 µM (active). In addition, the IC50 in assay [13] is 18.2 µM (active). Consider `Nc1ccc(-c2nc3ccccc3[nH]2)cc1`, for which the AC50 in assay [8] is 1.3 µM (active).

A word on the EC50: it is the concentration needed to bring the measured effect to its halfway point. Broadly, the IC50 is the point on the concentration scale where inhibition reaches its midpoint. The term AC50 denotes the concentration giving half of the maximal activity seen. As a reminder, the CC50 is the concentration at which the toxic effect on the cells reaches its halfway point.

The record behind these values is ChEMBL document CHEMBL1201862, “PubChem BioAssay data set” (2004).
